≈ marks a conversion by molar mass, not a printed value. Calls of active or inactive are those of the source. The rule behind the calls is not given here.
Tests used:
Pseudomonas aeruginosa [1] = assay: Antibacterial activity against multi-drug resistant Pseudomonas aeruginosa CCARM 2095 incubated for 24 hrs by broth microdilution method; assay type: functional
Pseudomonas aeruginosa [2] = assay: Bactericidal activity against multidrug-resistant Pseudomonas aeruginosa CCARM 2095 at 128 to 512 uM incubated for 12 hrs by time-kill assay; assay type: functional, organism-based; settings: dose 128-512 µM
Staphylococcus aureus [3] = assay: Antibacterial activity against methicillin-resistant Staphylococcus aureus CCARM 3089 incubated for 24 hrs by broth microdilution method; assay type: functional
Staphylococcus aureus [4] = assay: Bactericidal activity against methicillin-resistant Staphylococcus aureus CCARM 3089 at 128 to 512 uM incubated for 12 hrs by time-kill assay; assay type: functional, organism-based; settings: dose 128-512 µM
Escherichia coli [5] = assay: Induction of resistance development in Escherichia coli KCTC 1682 assessed as fold increase in MIC at 0.5 times MIC measured after 30 passages relative to control; assay type: functional
[6] = Effect on secondary structure of drug in PBS assessed as formation of random coil structure at 150 uM by CD analysis; assay type: physicochemical; settings: buffer
Staphylococcus aureus [7] = assay: Antibacterial activity against Staphylococcus aureus KCTC 1621 incubated for 24 hrs by CLSI based broth microdilution method; assay type: functional
[8] = Effect on secondary structure of drug in TFE assessed as fold increase in formation of alpha-helical conformation at 150 uM by CD analysis relative to HVF18; assay type: physicochemical
Salmonella typhimurium = assay: Antibacterial activity against Salmonella typhimurium KCTC 1926 incubated for 24 hrs by CLSI based broth microdilution method; assay type: functional, Salmonella enterica subsp. enterica serovar Typhimurium; settings: Salmonella enterica
Acinetobacter baumannii [9] = assay: Antibacterial activity against multidrug-resistant Acinetobacter baumannii 329-53 incubated for 24 hrs by CLSI based broth microdilution method; assay type: functional
Enterococcus faecium = assay: Antibacterial activity against vancomycin-resistant Enterococcus faecium ATCC 51559 incubated for 24 hrs by CLSI based broth microdilution method; assay type: functional
[10] = Hemolytic activity in sheep RBC incubated for 1 hr by absorbance based assay; assay type: toxicity, cell-based, Ovis aries; settings: erythrocyte
Pseudomonas aeruginosa [11] = assay: Antibacterial activity against multidrug-resistant Pseudomonas aeruginosa CCARM 2095 incubated for 24 hrs by CLSI based broth microdilution method; assay type: functional
Escherichia coli [12] = assay: Antibacterial activity against Escherichia coli KCTC 1682 incubated for 24 hrs by CLSI based broth microdilution method; assay type: functional
Acinetobacter baumannii [13] = assay: Antibacterial activity against multidrug-resistant Acinetobacter baumannii 329-97 incubated for 24 hrs by CLSI based broth microdilution method; assay type: functional
[14] = Effect on secondary structure of drug in SDS assessed as fold increase in formation of alpha-helical conformation at 150 uM by CD analysis relative to HVF18; assay type: physicochemical
Pseudomonas aeruginosa [15] = assay: Antibacterial activity against multidrug-resistant Pseudomonas aeruginosa CCARM 2109 incubated for 24 hrs by CLSI based broth microdilution method; assay type: functional
[16] = Effect on secondary structure of drug in LPS assessed as fold increase in formation of alpha-helical conformation at 150 uM by CD analysis relative to HVF18; assay type: physicochemical
Acinetobacter baumannii [17] = assay: Antibacterial activity against carbapenem-resistant Acinetobacter baumannii NMS 1707 incubated for 24 hrs by CLSI based broth microdilution method; assay type: functional
[18] = Hemolytic activity in sheep RBC at 256 uM incubated for 1 hr by absorbance based assay; assay type: toxicity, cell-based, Ovis aries, Erythrocyte; settings: sheep red blood cells, read-out: Activity
Pseudomonas aeruginosa [19] = assay: Antibacterial activity against Pseudomonas aeruginosa KCTC 1637 incubated for 24 hrs by CLSI based broth microdilution method; assay type: functional
Staphylococcus aureus [20] = assay: Antibacterial activity against methicillin-resistant Staphylococcus aureus CCARM 3095 incubated for 24 hrs by CLSI based broth microdilution method; assay type: functional
Acinetobacter baumannii [21] = assay: Antibacterial activity against carbapenem-resistant Acinetobacter baumannii CCARM 12005 incubated for 24 hrs by CLSI based broth microdilution method; assay type: functional
Staphylococcus aureus [22] = assay: Antibacterial activity against methicillin-resistant Staphylococcus aureus CCARM 3090 incubated for 24 hrs by CLSI based broth microdilution method; assay type: functional
Acinetobacter baumannii [23] = assay: Antibacterial activity against carbapenem-resistant Acinetobacter baumannii NMS 1915 incubated for 24 hrs by CLSI based broth microdilution method; assay type: functional
Staphylococcus aureus [24] = assay: Antibacterial activity against methicillin-resistant Staphylococcus aureus CCARM 3089 incubated for 24 hrs by CLSI based broth microdilution method; assay type: functional
[25] = tested on: Staphylococcus epidermidis; assay: Antibacterial activity against Staphylococcus epidermidis KCTC 1917 incubated for 24 hrs by CLSI based broth microdilution method; assay type: functional
[26] = Hydrophobicity of compound assessed as retention time by RP-HPLC analysis; assay type: physicochemical
Bacillus subtilis = assay: Antibacterial activity against Bacillus subtilis KCTC 3068 incubated for 24 hrs by CLSI based broth microdilution method; assay type: functional

| Compound | MIC (Staphylococcus aureus [7]) [µM] | MIC (Salmonella typhimurium) [µM] | MIC (Acinetobacter baumannii [9]) [µM] | MIC (Enterococcus faecium) [µM] | HC10 [10] [µM] | MIC (Pseudomonas aeruginosa [11]) [µM] | MIC (Escherichia coli [12]) [µM] | MIC (Acinetobacter baumannii [13]) [µM] | MIC (Pseudomonas aeruginosa [15]) [µM] | MIC (Acinetobacter baumannii [17]) [µM] | hemolysis at 1 h, 256 µM [18] [%] | MIC (Pseudomonas aeruginosa [19]) [µM] | MIC (Staphylococcus aureus [20]) [µM] | MIC (Acinetobacter baumannii [21]) [µM] | MIC (Staphylococcus aureus [22]) [µM] | MIC (Acinetobacter baumannii [23]) [µM] | MIC (Staphylococcus aureus [24]) [µM] | MIC [25] [µM] | Retention_time [26] [min] | MIC (Bacillus subtilis) [µM] | other results |
| --- | --- | --- | --- | --- | --- | --- | --- | --- | --- | --- | --- | --- | --- | --- | --- | --- | --- | --- | --- | --- | --- |
| Cc1onc(-c2ccccc2)c1C(=O)N[C@@H]1C(=O)N2[C@@H]1SC(C)(C)[C@@H]2C(=O)O [OXACILLIN] |  |  |  |  |  |  |  |  |  |  |  |  |  |  |  |  |  |  |  |  | MIC (Pseudomonas aeruginosa [1]): 4100 µM (≈ 1640 µg/mL); Activity (Pseudomonas aeruginosa [2]): inactive; MIC (Staphylococcus aureus [3]): 2050 µM (≈ 822 µg/mL); Activity (Staphylococcus aureus [4]): inactive |
| CN(C)[C@@H]1C(O)=C(C(N)=O)C(=O)[C@@]2(O)C(O)=C3C(=O)c4c(O)cccc4[C@@](C)(O)[C@H]3C[C@@H]12 [TETRACYCLINE] |  |  |  |  |  |  |  |  |  |  |  |  |  |  |  |  |  |  |  |  | fold change (FC) (Escherichia coli [5]): 256 |
| H-GVFRLKKWIQKVIKQWGK-NH2 | 8 | 4 | 8 | 8 | 212 | 4 | 8 | 1 | 16 | 2 | 12.2 | 8 | 8 | 4 | 8 | 2 | 8 | 4 | 25.16 | 4 | Activity [6]: Active; fold change (FC) [8]: ~ 5; fold change (FC) [14]: ~ 5; fold change (FC) [16]: ~ 5 |
| H-GVFRLKKWIQKVIRQWGR-NH2 | 8 | 4 | 4 | 8 | 122 | 2 | 8 | 2 | 16 | 2 | 21.2 | 8 | 4 | 4 | 8 | 2 | 8 | 4 | 25.15 | 2 | Activity [6]: Active; fold change (FC) [8]: ~ 5; fold change (FC) [14]: ~ 5; fold change (FC) [16]: ~ 5 |
| H-GVFRLKKWIRKVIRRWGR-NH2 | 8 | 4 | 8 | 4 | 116 | 2 | 16 | 2 | 16 | 8 | 20.4 | 8 | 8 | 8 | 4 | 4 | 4 | 8 | 22.99 | 4 | Activity [6]: Active; fold change (FC) [8]: ~ 5; fold change (FC) [14]: ~ 5; fold change (FC) [16]: ~ 5 |
| H-HVFRLKKWIQKVIDQFGE-OH | 128 | 32 | 4 | > 128 | > 256 | 128 | 32 | 4 | > 128 | 32 | 7.8 | 128 | > 128 | 4 | > 128 | 64 | > 128 | 16 | 25.53 | 32 |  |

Reference: ChEMBL document CHEMBL6074662, “Antibacterial, Antibiofilm, and Anti-inflammatory Effects of a Novel Thrombin-Derived Peptide in Sepsis Models: Insights into Underlying Mechanisms” (J Med Chem, 2024)
